Measured values reported in patent publication US20250109135A1, “NOVEL ISOINDOLINONE DERIVATIVE COMPOUNDS AS CASPASE INHIBITORS” (INNOVO THERAPEUTICS INC., priority 2022, published 2025).
Like-named read-outs stand apart in the source and are kept apart here.

Key:
[1] = molecular target: T1, recombinant human Caspase-1 (Homo sapiens, UniProt P29466); assay: Caspase-1 inhibitory activity, fluorescent substrate Ac-YVAD-AFC; type: biochemical
T1 construct: purchased Enzo life science
T1 sequence (P29466 120-297 limits assumed): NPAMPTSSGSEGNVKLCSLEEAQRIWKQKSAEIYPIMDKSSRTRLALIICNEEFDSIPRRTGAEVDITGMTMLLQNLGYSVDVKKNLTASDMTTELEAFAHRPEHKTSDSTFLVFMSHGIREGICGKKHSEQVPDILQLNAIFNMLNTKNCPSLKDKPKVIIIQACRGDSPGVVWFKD
T1 sequence (P29466 317-404 limits assumed): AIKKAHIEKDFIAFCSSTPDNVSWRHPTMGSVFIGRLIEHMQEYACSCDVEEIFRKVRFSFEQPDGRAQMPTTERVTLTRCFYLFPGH
Method in brief: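 Inactivation kinetics with 1 unit enzyme and 50 μM Ac-YVAD-AFC in 50 mM HEPES pH 8.0, 50 mM KCl, 200 mM NaCl, 10 mM DTT, 0.1% CHAPS, at various compound concentrations. Rate followed over time at Ex/Em 400/505 nm. kobs/[I] binned: A ≥20, B 10–<20, C 1–<10, D <1.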

[2] = tested on: Secreted IL-1β in THP-1 cells; assay: Interleukin-1β inhibitory activity in human monocytic cells THP-1 (ELISA); type: cell-based; settings: compound 100 nM, PMA-differentiated THP-1, LPS 10 μg/ml then 5 mM ATP, 24 h
Method in brief: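 THP-1 cells were differentiated with 1 μM PMA for 24 h, primed with 10 μg/ml LPS in serum-free medium for 24 h, then given compound at 100 nM for 1 h before 5 mM ATP for 24 h. Secreted IL-1β was measured by ELISA, and inhibition was binned a ≥50%, b 30–<50%, c 10–<30%, d <10%.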

Jurkat cells = assay: Apoptosis inhibition activity in human T-lymphocyte cells Jurkat (anti-FAS antibody, intracellular ATP); type: cell-based; settings: compound 50 nM, 1 μg/ml anti-FAS antibody 24 h, ATP luminescence
Method: To evaluate the effect of the compound of the present invention on apoptosis, Jurkat (ATCC) cells were treated with anti-FAS antibody CH-11 (Merck) to induce apoptosis via the Fas (CD95) receptor, which was assessed by the amount of intracellular ATP.
Jurkat cells were cultured in RPMI 1640 growth medium comprising 10% FBS and antibiotics (100 U/ml Penicillin, 0.1 mg/ml Streptomycin) under 37° C., 5% CO2 conditions. Cultured cells were seeded in growth medium to a concentration of 8×10^4 cells/well in 96-well plates (SPL), pretreated with compound at a concentration of 50 nM for 1 hour, and then treated with 1 μg/ml anti-FAS antibody for 24 hours in an incubator. After 24 h, an ATP lite Luminescence assay kit (PerkinElmer) was used to measure ATP and luminescence was measured at 580 nm using a CLARIOstar Plus spectrometer. If the inhibitory activity is 30% or more, it is denoted as a′, if it is 20% or more but less than 30%, it is denoted as b′, if it is 10% or more but less than 20%, it is denoted as c′, and if it is less than 10%, it is denoted as d′.

[3] = pH 8, read-out: kobs/[I] Caspase-1
[4] = pH 8, 1 unit recombinant human Caspase-1, 50 μM Ac-YVAD-AFC, read-out: kobs/[I] Caspase-1

kinact/KI [1, 4]	Compound	kinact/KI [1, 3]	inhibition at 0.1 µM [2]	inhibition at 0.05 µM (Jurkat cells)
	CCC(C(=O)NC(CC(=O)O)C(=O)CF)N1Cc2ccc(-c3csc4ccccc34)cc2C1=O (stereo not drawn) [Compound 16, 3-(2-(6-(benzo[b]thiophen-3-yl)-1-oxoisoindolin-2-yl)butanamido)-5-fluoro-4-oxopentanoic acid]	> 0.333 M⁻¹ s⁻¹	≥ 50%	20 to 30%
	O=C(O)CC(NC(=O)CN1Cc2ccc(-c3csc4ccccc34)cc2C1=O)C(=O)CF (stereo not drawn) [Compound 40, 3-(2-(6-(benzo[b]thiophen-3-yl)-1-oxoisoindolin-2-yl)acetamido)-5-fluoro-4-oxopentanoic acid]	0.0167 to 0.167 M⁻¹ s⁻¹	< 10%	< 10%
0.0167 to 0.167 M⁻¹ s⁻¹	CC[C@@H](C(=O)N[C@H](CC(=O)O)C(=O)COc1c(F)c(F)cc(F)c1F)N1Cc2ccc(-c3ccc4c(c3)OCCO4)cc2C1=O [Compound 54, (R)-3-((S)-2-(6-(2,3-dihydrobenzo[b][1,4]dioxin-6-yl)-1-oxoisoindolin-2-yl)butanamido)-4-oxo-5-(2,3,5,6-tetrafluorophenoxy)pentanoic acid]		30 to 50%	< 10%
0.167 to 0.333 M⁻¹ s⁻¹	CCC(C(=O)NC(CC(=O)O)C(=O)CF)N1Cc2ccc(-c3ccc4ncccc4c3)cc2C1=O (stereo not drawn) [Compound 30, 5-fluoro-4-oxo-3-(2-(1-oxo-6-(quinolin-6-yl)isoindolin-2-yl)butanamido)pentanoic acid]		< 10%	< 10%
